Results: US20240043473A1, “NOOTROPIC PEPTIDES FOR TREATING LYSOSOMAL STORAGE DISEASES” (Phoenix Nest Inc., priority 2021, published 2024)
“Also recorded” adds a separate entry of the source. No end group written: not given here.

Tested on: iPSC-derived cortical neurons from MPS IIIA and MPS IIIC patients
Experiment: Synaptic protein markers and BDNF in iPSC-derived cultured cortical neurons (immunocytochemistry)
Assay type: cell-based, human
Details: 10 μM in culture; MPS IIIA and MPS IIIC patient neurons
Text: Generation of iPSC lines MPS III patient fibroblast lines were obtained from the Coriell Institute for Medical Research (NJ, USA), or from the hospitals were the patients were diagnosed/followed with the informed consent of patient's families. The fibroblasts were propagated in Dulbecco's Modified Eagle Medium (DMEM, ThermoFisher) with 10% fetal bovine serum (FBS) and 1% Antibiotic-Antimycotic (15240062, ThermoFisher) and tested for mycoplasma. The cells were further reprogrammed into iPSCs at the CHUSJ iPSC Platform using a non-integrating CytoTune-Sendai viral reprograming kit (A16517, Thermo Fisher Scientific, MA, USA) according to the manufacture's protocol. Two colonies for each iPSC line were used for further proliferation, iPSCs were expanded and maintained on six-well plates coated with Matrigel mTeSR™ Plus medium at 37° C., in 5% CO2/5% O2 atmosphere following the medium manufacturer's protocol. […]
Induction of cortical NPC and cortical neurons iPSCs were differentiated into cortical forebrain committed neural precursor cells (NPCs) by dual SMAD inhibition by passaging iPSCs over to poly-L-ornithine (PO)/laminin coated dishes. […] After induction for 3 weeks the cells were analyzed by ICH for the presence of neuronal markers PAX6, and TUBB3, confirmation of disease-specific enzymatic deficiencies and lysosomal storage phenotype (increased size of LAMP2+ puncta by ICH). […]

“AVP6: N-terminally acetylated Semax, a nootropic peptide having the amino acid sequence of MEHFPGP (SEQ ID NO:1) (Ac-MEHFPGP)” was tested, and the “levels of BDNF+, VGLUT1+ and PSD-95+ puncta” value was “significantly increased” and the “levels of VGLUT1+, PSD-95+, SYN1+ and BDNF+ puncta” value was “rescues reduced levels of synaptic markers; also recorded: significantly increased”.
